Laboratory results as given in patent US9340549B2, “Oxazolidinone compounds and derivatives thereof” (priority 2012, dated 2016).
Where two headings read alike, the source gives them in different places.

Columns and labels:
[1] = tested on: 8×TCF promoter-driven Firefly luciferase (Wnt reporter) in HEK-293 cells; assay: 2H9-STF assay, Wnt ligand activated HEK-293 assay in WT APC cellular context; type: cell-based; conditions: Homo sapiens, HEK293; HEK-293 reporter cells, 200 ng/mL mouse Wnt3a, 18 to 24 hours; read-out: 2H9-Wnt3a-STF-FF/RL * 100 IC50
Method: HEK-293 cells engineered with an 8×TCF promoter-driven Firefly (FF) luciferase gene (Wnt reporter) along with an SV40 promoter-driven Renilla (RN) luciferase gene (control reporter) were used to measure the potency of tankyrase compounds in the context of Wnt ligand activation in a wild-type (non-APC mutated) cellular background. The engineered HEK-293 cells were plated (25 μL) at a density of 40,000 cells/well in black, clear-bottom, 96-well View plates (PerkinElmer) in normal growth medium (DMEM with 10% FBS with no antibiotics). Tankyrase inhibitors (5 μL) were transferred to cells from a three-fold serially diluted compound plate. A 10-point dilution series was tested starting at a concentration (10 μM final concentration in assay). Column 6 contained only DMSO and served as the “HI” control. Cells and compounds were incubated together for 1 hour at 37° C. after which the Wnt3a ligand (pathway inducer) was added to all wells except column 12 which served as the “LO” control. Twenty microliters of diluted recombinant mouse Wnt3a (R & D Systems) was added to the cells for a final concentration of 200 ng/mL (5 nM which is the Wnt3a˜EC80) and the plates were incubated at 37° C. for 18 to 24 hours. The Dual-Glo Reagents (Promega) were added as directed by manufacturer to assay the FF and RN luciferase activity. Luciferase activity was measures using the EnVision multilabel plate reader (PerkinElmer).

[2] = tested on: total β-catenin in SW480 colorectal cells; assay: cells; type: cell-based; conditions: Homo sapiens
Summary of the method: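 SW480 cells in growth medium (MEM alpha, 10% heat-inactivated FBS, 10 mM HEPES) treated with a 10-point, 3-fold dilution series of TNKS inhibitor for 40–48 h at 37 °C. Lysates run on an MSD sandwich immunoassay for total β-catenin, read by electrochemiluminescence.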

[3] = tested on: Axin2 in SW480 cells; assay: cells; type: cell-based; conditions: Homo sapiens, read-out: Axin2 384 IF EC50 IP
Summary of the method: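 SW480 cells treated 24 h at 37° C (0.5% DMSO final), fixed/permeabilized, immunostained for Axin2. ArrayScan imaging quantified ring-spot intensity; Axin2 accumulation expressed as percent of control, EC50 from concentration-response.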

[4] = target: 6×HIS-tankyrase 1 (1091-1325) (Homo sapiens (Human), UniProt O95271); assay: biochemical; type: biochemical; conditions: […] enzyme, 400 nM NAD, 60 minutes at room temperature; read-out: TNKS1 IP IC50
[5] = SW480 cells, 40 to 48 hours, top concentration 10 μM, read-out: SW480-Total β-Catenin IC50 IP
[6] = SW480, 24 h, SW480 cells, 24 hours
[7] = SW480, read-out: SW480-Total β-Catenin IC50 IP

Chain of 6×HIS-tankyrase 1 (1091-1325) (O95271 1091-1325): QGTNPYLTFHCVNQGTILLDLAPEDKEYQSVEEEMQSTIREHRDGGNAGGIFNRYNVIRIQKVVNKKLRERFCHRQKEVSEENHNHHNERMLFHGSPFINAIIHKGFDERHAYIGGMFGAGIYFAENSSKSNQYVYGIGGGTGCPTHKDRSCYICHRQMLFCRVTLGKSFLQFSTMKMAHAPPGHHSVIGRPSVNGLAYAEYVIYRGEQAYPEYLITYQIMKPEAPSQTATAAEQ

Row | Structure (SMILES) | IC50 [1] | IC50 [2, 5] | EC50 [3, 6] | IC50 [4] | EC50 ([3]; SW480 cells, 24 hours) | IC50 [2, 7] | EC50 ([3]; SW480, 24 h)
1 | CC1(C)OC(=O)N([C@H]2CC[C@H](C(=O)Nc3cccc4cccnc34)CC2)[C@H]1c1ccccc1 [Example 32, (1S,4r)-4-((S)-5,5-dimethyl-2-oxo-4-phenyloxazolidin-3-yl)-N-(quinolin-8-yl)cyclohexanecarboxamide] | 92.8 nM |  |  |  |  |  | 
2 | CC1(C)OC(=O)N([C@H]2CC[C@H](n3c(=O)[nH]c4cccnc43)CC2)[C@H]1c1ccccc1 [Example 37, (S)-5,5-dimethyl-3-((1r,4S)-4-(2-oxo-1H-imidazo[4,5-b]pyridin-3(2H)-yl)cyclohexyl)-4-phenyloxazolidin-2-one] | 183 nM | 517 nM | 3580 nM |  |  |  | 
3 | CC1(C)OC(=O)N([C@H]2CC[C@@H](c3c[nH]c(=O)c(-c4ncccn4)c3)CC2)[C@H]1c1ccccc1 [Example 96, (S)-5,5-Dimethyl-3-((1s,4R)-4-(6-oxo-5-(pyrimidin-2-yl)-1,6-dihydropyridin-3-yl)cyclohexyl)-4-phenyloxazolidin-2-one] |  | > 10000 nM | > 25000 nM | 511 nM |  |  | 
4 | CC1(C)OC(=O)N(c2ccc(C(=O)Nc3cccc4cccnc34)cc2)[C@H]1c1cccc(F)c1 [Example 110, (S)-4-(4-(3-fluorophenyl)-5,5-dimethyl-2-oxooxazolidin-3-yl)-N-(quinolin-8-yl)benzamide] |  | 1690 nM | 2700 nM | 193 nM |  |  | 
5 | CC1(C)OC(=O)N(c2ccc(N3C(=O)Cc4ccccc43)cc2)[C@H]1c1ccccc1 [Example 18, (S)-5,5-dimethyl-3-(4-(2-oxoindolin-1-yl)phenyl)-4-phenyloxazolidin-2-one] |  | > 10000 nM | > 25000 nM | 973 nM |  |  | 
6 | CC1(C)OC(=O)N(c2ccc(C(=O)Nc3cccc4cccnc34)cc2)[C@H]1c1cccnc1 [Example 11, (S)-4-(5,5-dimethyl-2-oxo-4-(pyridin-3-yl)oxazolidin-3-yl)-N-(quinolin-8-yl)benzamide] |  | 1520 nM | 7060 nM | 392 nM |  |  | 
7 | CC1(C)OC(=O)N([C@H]2CC[C@H](N3Cc4cc(C#N)ccc4NC3=O)CC2)[C@H]1c1ccccc1 [Example 62, 3-((1S,4r)-4-((S)-5,5-dimethyl-2-oxo-4-phenyloxazolidin-3-yl)cyclohexyl)-2-oxo-1,2,3,4-tetrahydroquinazoline-6-carbonitrile] |  | 438 nM | 147 nM | 7.63 nM |  |  | 
8 | CC1(C)OC(=O)N(c2ccc(-n3c(=O)oc4ccccc43)cc2)[C@H]1c1ccccc1 [Example 17, (S)-3-(4-(5,5-dimethyl-2-oxo-4-phenyloxazolidin-3-yl)phenyl)benzo[d]oxazol-2(3H)-one] |  | > 10000 nM | > 25000 nM | 2820 nM |  |  | 
9 | CC1(C)OC(=O)N([C@H]2CC[C@H](n3c(=O)[nH]c4cnccc43)CC2)[C@H]1c1ccc(F)cc1 [Example 55, (S)-4-(4-Fluorophenyl)-5,5-dimethyl-3-((1r,4S)-4-(2-oxo-2,3-dihydro-1H-imidazo[4,5-c]pyridin-1-yl)cyclohexyl)oxazolidin-2-one] |  | 145 nM | 100 nM | 2.95 nM |  |  | 
10 | CC1(C)OC(=O)N([C@H]2CC[C@H](N3C(=O)C(F)(F)c4ccccc43)CC2)[C@H]1c1ccccc1 [Example 48, (S)-3-((1s,4R)-4-(3,3-difluoro-2-oxoindolin-1-yl)cyclohexyl)-5,5-dimethyl-4-phenyloxazolidin-2-one] |  | > 10000 nM | > 25000 nM | 617 nM |  |  | 
11 | CC1(C)OC(=O)N([C@H]2CC[C@H](NC(=O)c3cccc4cccnc34)CC2)[C@@H]1c1ccccc1 (single isomer, unassigned) [Example 28] | 113 nM |  |  |  |  |  | 
12 | CC1(C)OC(=O)N([C@H]2CC[C@H](c3c[nH]c(=O)c(-c4ncccn4)c3)CC2)[C@H]1c1ccccc1 [Example 97, (S)-5,5-Dimethyl-3-((1r,4S)-4-(6-oxo-5-(pyrimidin-2-yl)-1,6-dihydropyridin-3-yl)cyclohexyl)-4-phenyloxazolidin-2-one] |  | 4430 nM | > 25000 nM | 267 nM |  |  | 
13 | CC1(C)OC(=O)N(c2ccc(-c3cnc(N)nc3)cc2)[C@H]1c1ccccc1 [Example 70, (S)-3-(4-(2-aminopyrimidin-5-yl)phenyl)-5,5-dimethyl-4-phenyloxazolidin-2-one] |  | > 10000 nM | > 25000 nM | 1490 nM |  |  | 
14 | CC1(C)OC(=O)N(c2ccc(-c3cc4ccncc4[nH]c3=O)cc2)[C@H]1c1ccccc1 [Example 88, (S)-5,5-dimethyl-3-(4-(2-oxo-1,2-dihydro-1,7-naphthyridin-3-yl)phenyl)-4-phenyloxazolidin-2-one] |  | 473 nM | 285 nM | 11.8 nM |  |  | 
15 | CC1(c2ccccc2)CN([C@H]2CC[C@H](n3c(=O)[nH]c4cnccc43)CC2)C(=O)O1 (stereo partly drawn) [Example 89, (R+S)-5-methyl-3-((1r,4R)-4-(2-oxo-2,3-dihydro-1H-imidazo[4,5-c]pyridin-1-yl)cyclohexyl)-5-phenyloxazolidin-2-one] |  | 3440 nM | 7030 nM | 17.2 nM |  |  | 
16 | CC1(c2ccccc2)CN([C@H]2CC[C@H](n3c(=O)[nH]c4ccccc43)CC2)C(=O)O1 (some centres unmarked) [Example 34, (R+S) 5-methyl-3-((1r,4r)-4-(2-oxo-2,3-dihydro-1H-benzo[d]imidazol-1-yl)cyclohexyl)-5-phenyloxazolidin-2-one] |  | 829 nM |  | 42.8 nM | 2720 nM |  | 
17 | CC1(C)OC(=O)N(c2ccc(-c3cc(-c4ccccn4)cnn3)cc2)[C@H]1c1ccccc1 [Example 40, (S)-5,5-dimethyl-4-phenyl-3-(4-(5-(pyridin-2-yl)pyridazin-3-yl)phenyl)oxazolidin-2-one] |  |  |  | 621 nM |  | 9470 nM | > 25000 nM
18 | O=C(Nc1cccc2cccnc12)c1ccc(N2C(=O)OC3(CCCC3)C2c2ccccc2)cc1 (centres unmarked) [Example 45, (R+S) 4-(2-oxo-4-phenyl-1-oxa-3-azaspiro[4.4]nonan-3-yl)-N-(quinolin-8-yl)benzamide] |  |  |  | 1250 nM |  | > 10000 nM | > 25000 nM
19 | CC1(C)OC(=O)N([C@H]2CC[C@H](c3nnc(-c4ccccc4)o3)CC2)C1c1ccccc1 (some centres unmarked) [Example 84, 5,5-dimethyl-4-phenyl-3-((1r,4r)-4-(5-phenyl-1,3,4-oxadiazol-2-yl)cyclohexyl)oxazolidin-2-one] |  | 4940 nM | 7600 nM | 473 nM |  |  | 
20 | CC1(C)OC(=O)N(c2ccc(-c3ccc[nH]c3=O)cc2)[C@H]1c1ccccc1 [Example 119, (S)-5,5-dimethyl-3-(4-(2-oxo-1,2-dihydropyridin-3-yl)phenyl)-4-phenyloxazolidin-2-one] |  | > 10000 nM | > 25000 nM | 1350 nM |  |  | 
21 | CC1(C)OC(=O)N(c2ccc(-n3cc(-c4ncccn4)ccc3=O)cc2)[C@H]1c1ccccc1 [Example 127, (S)-5,5-dimethyl-3-(4-(2-oxo-5-(pyrimidin-2-yl)pyridin-1(2H)-yl)phenyl)-4-phenyloxazolidin-2-one] |  | 1100 nM | 6270 nM | 280 nM |  |  | 
22 | CC1(C)OC(=O)N(c2ccc(C(=O)Nc3cccc4cccnc34)cc2)[C@H]1c1ccncc1 [Example 126, (S)-4-(5,5-dimethyl-2-oxo-4-(pyridin-4-yl)oxazolidin-3-yl)-N-(quinolin-8-yl)benzamide] |  |  | 4620 nM | 272 nM |  | 761 nM | 
23 | Cc1ccccc1[C@@H]1N(c2ccc(C(=O)Nc3cccc4cccnc34)cc2)C(=O)OC1(C)C [Example 41, (S)-4-(5,5-dimethyl-2-oxo-4-(o-tolyl)oxazolidin-3-yl)-N-(quinolin-8-yl)benzamide] |  | 1980 nM | 4370 nM | 116 nM |  |  | 
24 | CC1(C)OC(=O)N(c2ccc(-n3nnc4ccccc43)cc2)[C@H]1c1ccccc1 [Example 69, (S)-3-(4-(1H-benzo[d][1,2,3]triazol-1-yl)phenyl)-5,5-dimethyl-4-phenyloxazolidin-2-one] |  | > 10000 nM | > 25000 nM | 2100 nM |  |  | 
25 | CC1(C)OC(=O)N([C@@H]2CC=C(c3cc(-c4ncccn4)c[nH]c3=O)CC2)[C@H]1c1ccccc1 (single isomer, unassigned) [Example 5] |  | 447 nM | 816 nM | 24.1 nM |  |  | 
